Legend:
muscarinic M1 receptor = molecular target: T1, muscarinic M1 receptor (Homo sapiens, UniProt P11229); test: M1 PAM Assay (IP-One HTRF, IP1 in M1-CHO cells with EC20 of acetylcholine); type: cell-based; conditions: 1 hour at room temperature, IP1 readout
T1 construct: expressed in transfected cells; host or cells: CHO (M1-CHO cells)
T1 sequence (P11229 1-460): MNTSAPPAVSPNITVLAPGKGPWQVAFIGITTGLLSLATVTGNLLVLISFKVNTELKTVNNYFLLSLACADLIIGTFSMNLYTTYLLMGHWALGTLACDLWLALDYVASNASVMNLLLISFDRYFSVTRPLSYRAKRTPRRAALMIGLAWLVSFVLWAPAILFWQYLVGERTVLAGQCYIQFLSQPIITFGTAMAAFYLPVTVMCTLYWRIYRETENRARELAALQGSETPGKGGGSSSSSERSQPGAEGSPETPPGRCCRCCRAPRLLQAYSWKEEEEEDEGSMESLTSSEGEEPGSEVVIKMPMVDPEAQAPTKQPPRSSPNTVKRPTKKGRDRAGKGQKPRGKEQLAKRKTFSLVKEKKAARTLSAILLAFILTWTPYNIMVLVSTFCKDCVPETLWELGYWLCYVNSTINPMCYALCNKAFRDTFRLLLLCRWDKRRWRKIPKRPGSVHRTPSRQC
Protocol: M1-CHO cells are plated in culture medium (HAM's F12, P/S, 10% FCS) on the day before the experiment with 10 000 cells/well in a 384 well plate (3750 Corning White 384 w plate with lid). On the day of experiment, cells are washed with PBS and IPone buffer is added (glucose 5.5 mM, NaCl 146 mM, MgCl2 0.5 mM, HEPES 10 mM, LiCl 50 mM, CaCl2 1 mM, KCl 4.2 mM). Then diluted compounds (1% DMSO final concentration) are added together with EC20 of acetylcholine and incubated with the cells for 1 hour at room temperature. The intracellular concentration of IP1 is then measured using the IP-One HTRF assay from Cisbio.

SMILES | melting point | EC50 (muscarinic M1 receptor)
CCOc1c(F)cc(F)cc1C(=O)N1Cc2nn3c(C)c(Cl)c(C)nc3c2C1 [Example 28, (6-chloro-5,7-dimethyl-1H,3H-2,4,7a,8-tetraaza-cyclopenta[a]inden-2-yl)-(2-ethoxy-3,5-difluoro-phenyl)-methanone] | 153 to 155 °C | 1 to 2 µM
Cc1nc2c3c(nn2c(C)c1Cl)CN(C(=O)c1ccccc1CN1CCNCC1=O)C3 [Example 117, 1-[2-(6-chloro-5,7-dimethyl-1H,3H-2,4,7a,8-tetraaza-cyclopenta[a]indene-2-carbonyl)-benzyl]-piperazin-2-one] | 176 to 183 °C | 
CCCCOc1ccccc1C(=O)N1Cc2nn3c(C)c(Cl)c(C)nc3c2C1 [Example 11, (2-butoxy-phenyl)-(6-chloro-5,7-dimethyl-1H,3H-2,4,7a,8-tetraaza-cyclopenta[a]inden-2-yl)-methanone] | 167 to 169 °C | 0.2 to 1 µM
Cc1nc2c3c(nn2c(C)c1Cl)CN(C(=O)c1ccccc1OCC(C)C)C3 [Example 30, (6-Chloro-5,7-dimethyl-1H,3H-2,4,7a,8-tetraaza-cyclopenta[a]inden-2-yl)-(2-isobutoxy-phenyl)-methanone] | 184 to 187 °C | 1 to 2 µM
COc1c(F)cc(F)cc1C(=O)N1Cc2nn3c(C)c(Cl)c(C)nc3c2C1 [Example 16, (6-chloro-5,7-dimethyl-1H,3H-2,4,7a,8-tetraaza-cyclopenta[a]inden-2-yl)-(3,5-difluoro-2-methoxy-phenyl)-methanone] | 185 to 187 °C | 0.2 to 1 µM
Cc1nc2c3c(nn2c(C)c1Cl)CN(C(=O)c1ccccc1CN1CC(N(C)C)C1)C3 [Example 126, (6-chloro-5,7-dimethyl-1H,3H-2,4,7a,8-tetraaza-cyclopenta[a]inden-2-yl)-[2-(3-dimethylamino-azetidin-1-ylmethyl)-phenyl]-methanone] | 159 to 162 °C | 
Cc1nc2c3c(nn2c(C)c1Cl)CN(C(=O)c1ccccc1OCCN(C)C)C3 [Example 8, (6-chloro-5,7-dimethyl-1H,3H-2,4,7a,8-tetraaza-cyclopenta[a]inden-2-yl)-[2-(2-dimethylamino-ethoxy)-phenyl]-methanone] | 156 to 159 °C | 0.2 to 1 µM
CCOc1ccc(Br)cc1C(=O)N1Cc2nn3c(C)c(C)c(C)nc3c2C1 [Example 45, (5-bromo-2-ethoxy-phenyl)-(5,6,7-trimethyl-1H,3H-2,4,7a,8-tetraaza-cyclopenta[a]inden-2-yl)-methanone] | 208 to 215 °C | 1 to 2 µM
Cc1nc2c3c(nn2c(C)c1Cl)CN(C(=O)c1ccccc1CN1CCC(O)C1)C3 (centres unmarked) [Example 72, (6-chloro-5,7-dimethyl-1H,3H-2,4,7a,8-tetraaza-cyclopenta[a]inden-2-yl)-[2-(3-hydroxy-pyrrolidin-1-ylmethyl)-phenyl]-methanone] | 210 to 217 °C | 
Cc1nc2c3c(nn2c(C)c1Cl)CN(C(=O)c1ccccc1CN1CCCC(N)C1)C3 (centres unmarked) [Example 125, [2-(3-amino-piperidin-1-ylmethyl)-phenyl]-(6-chloro-5,7-dimethyl-1H,3H-2,4,7a,8-tetraaza-cyclopenta[a]inden-2-yl)-methanone] | 165 to 170 °C | 
Cc1nc2c3c(nn2c(C)c1Cl)CN(C(=O)c1ccccc1OC(F)(F)F)C3 [Example 14, (6-chloro-5,7-dimethyl-1H,3H-2,4,7a,8-tetraaza-cyclopenta[a]inden-2-yl)-(2-trifluoromethoxy-phenyl)-methanone] | 179 to 181 °C | 0.2 to 1 µM
CCOc1ccccc1C(=O)N1Cc2nn3c(C)c(Cl)c(C)nc3c2C1 [Example 10] | 164 to 167 °C | 0.2 to 1 µM
O=C(c1ccccc1OC(F)(F)C(F)F)N1Cc2nn3cc(Cl)cnc3c2C1 [Example 106, (6-chloro-1H,3H-2,4,7a,8-tetraaza-cyclopenta[a]inden-2-yl)-[2-(1,1,2,2-tetrafluoro-ethoxy)-phenyl]-methanone] | 194 to 196 °C | 
Cc1nc2c3c(nn2c(C)c1Cl)CN(C(=O)c1ccccc1CN1CCC(O)(C(F)(F)F)CC1)C3 [Example 90, (6-chloro-5,7-dimethyl-1H,3H-2,4,7a,8-tetraaza-cyclopenta[a]inden-2-yl)-[2-(4-hydroxy-4-trifluoromethyl-piperidin-1-ylmethyl)-phenyl]-methanone] | 223 to 227 °C | 
Cc1nc2c3c(nn2c(C)c1Cl)CN(C(=O)c1ccccc1CN1CCNC(C)C1)C3 (centres unmarked) [Example 116, (6-chloro-5,7-dimethyl-1H,3H-2,4,7a,8-tetraaza-cyclopenta[a]inden-2-yl)-[2-(3-methyl-piperazin-1-ylmethyl)-phenyl]-methanone] | 195 to 200 °C | 
O=C(c1ccc(F)cc1OC(F)(F)C(F)F)N1Cc2nn3cc(Cl)cnc3c2C1 [Example 138, (6-chloro-1H,3H-2,4,7a,8-tetraaza-cyclopenta[a]inden-2-yl)-[4-fluoro-2-(1,1,2,2-tetrafluoro-ethoxy)-phenyl]-methanone] | 208 to 210 °C | 
Cc1nc2c3c(nn2c(C)c1C)CN(C(=O)c1ccccc1OCCN(C)C)C3 [Example 22, [2-(2-dimethylamino-ethoxy)-phenyl]-(5,6,7-trimethyl-1H,3H-2,4,7a,8-tetraaza-cyclopenta[a]inden-2-yl)-methanone] | 148 to 150 °C | 0.2 to 1 µM
CSCCOc1ccccc1C(=O)N1Cc2nn3c(C)c(Cl)c(C)nc3c2C1 [Example 15, (6-chloro-5,7-dimethyl-1H,3H-2,4,7a,8-tetraaza-cyclopenta[a]inden-2-yl)-[2-(2-methylsulfanyl-ethoxy)-phenyl]-methanone] | 183 to 185 °C | 0.2 to 1 µM
Cc1nc2c3c(nn2c(C)c1Cl)CN(C(=O)c1ccccc1CN1CCN2CCCC2C1)C3 (centres unmarked) [Example 97, (6-chloro-5,7-dimethyl-1H,3H-2,4,7a,8-tetraaza-cyclopenta[a]inden-2-yl)-[2-(hexahydro-pyrrolo[1,2-a]pyrazin-2-ylmethyl)-phenyl]-methanone] | 180 to 182 °C | 
Cc1nc2c3c(nn2c(C)c1Cl)CN(C(=O)c1ccccc1CN1CCCNCC1)C3 [Example 118, (6-chloro-5,7-dimethyl-1H,3H-2,4,7a,8-tetraaza-cyclopenta[a]inden-2-yl)-(2-[1,4]diazepan-1-ylmethyl-phenyl)-methanone] | 185 to 192 °C | 
Cc1nc2c3c(nn2c(C)c1C)CN(C(=O)c1ccccc1N1CCN(C)CC1)C3 [Example 36, [2-(4-methyl-piperazin-1-yl)-phenyl]-(5,6,7-trimethyl-1H,3H-2,4,7a,8-tetraaza-cyclopenta[a]inden-2-yl)-methanone] |  | 1 to 2 µM
Cc1nc2c3c(nn2c(C)c1Cl)CN(C(=O)c1ccccc1OC1CCOCC1)C3 [Example 35, (6-chloro-5,7-dimethyl-1H,3H-2,4,7a,8-tetraaza-cyclopenta[a]inden-2-yl)-[2-(tetrahydro-pyran-4-yloxy)-phenyl]-methanone] |  | 1 to 2 µM
Cc1nc2c3c(nn2c(C)c1Cl)CN(C(=O)c1ccccc1N1CCCN(C)CC1)C3 [Example 6, (6-chloro-5,7-dimethyl-1H,3H-2,4,7a,8-tetraaza-cyclopenta[a]inden-2-yl)-[2-(4-methyl-[1,4]diazepan-1-yl)-phenyl]-methanone] |  | 0.2 to 1 µM
Cc1nc2c3c(nn2c(C)c1Cl)CN(C(=O)c1ccccc1CN1CCCN(C)CC1)C3 [Example 95, (6-Chloro-5,7-dimethyl-1H,3H-2,4,7a,8-tetraaza-cyclopenta[a]inden-2-yl)-[2-(4-methyl-[1,4]diazepan-1-ylmethyl)-phenyl]-methanone] | 138 to 141 °C | 
Cc1nc2c3c(nn2c(C)c1Cl)CN(C(=O)c1ccccc1CN(CCN(C)C)CC(F)(F)F)C3 [Example 154, (6-chloro-5,7-dimethyl-1H,3H-2,4,7a,8-tetraaza-cyclopenta[a]inden-2-yl)-(2-{[(2-dimethylamino-ethyl)-(2,2,2-trifluoro-ethyl)-amino]-methyl}-phenyl)-methanone] | 168 to 174 °C | 
Cc1nc2c3c(nn2c(C)c1C)CN(C(=O)c1ccccc1OCCC1CCCCC1)C3 [Example 40, [2-(2-cyclohexyl-ethoxy)-phenyl]-(5,6,7-trimethyl-1H,3H-2,4,7a,8-tetraaza-cyclopenta[a]inden-2-yl)-methanone] |  | 1 to 2 µM
Cc1nc2c3c(nn2c(C)c1C)CN(C(=O)c1ccccc1Br)C3 [Example 49, (2-bromo-phenyl)-(5,6,7-trimethyl-1H,3H-2,4,7a,8-tetraaza-cyclopenta[a]inden-2-yl)-methanone] |  | 1 to 2 µM
Cc1nc2c3c(nn2c(C)c1Cl)CN(C(=O)c1ccccc1CN1C[C@H]2CN(C)C[C@H]2C1)C3 [Example 94, (6-chloro-5,7-dimethyl-1H,3H-2,4,7a,8-tetraaza-cyclopenta[a]inden-2-yl)-[2-((3aR,6aS)-5-methyl-hexahydro-pyrrolo[3,4-c]pyrrol-2-ylmethyl)-phenyl]-methanone] | 174 to 177 °C | 

From patent US9403835B2, “Tetraaza-cyclopenta[a]indenyl and their use as positive allosteric modulators” (Merck Patent GmbH, priority 2011, dated 2016)
